Reference: patent US5445951A, “Regioselective enzymatic deacylation of sucrose esters in anhydrous organic media” (priority 1993, dated 1995)
Values joined by “and” are separate entries in the source; they are usually repeats but may differ in a detail not shown here. Equal values may be shown once. Read-outs that look alike come from different tables or passages of the source.

Columns and labels:
[1] = tested on: lipase AY 30; experiment: Effect of the solvent on lipase AY 30 SOA deacetylation; type: biochemical, Candida cylindracea; settings: lipase AY 30, solvent as labelled, 24 hrs
Experimental: (§1) Identical enzyme catalyzed SOA deacetylations were run in numerous anhydrous solvents. After 24 hrs incubation an aliquot was analyzed by HPLC.
(§2) Enzyme and Solvent Screening for SOA Deacetylation. A scintillation vial was charged successively with 100 mg of powdered enzyme as received or prepared as described and 1.0 ml of 20 mM sucrose octaacetate (SOA) dissolved in an organic solvent. Following a 5 sec sonication, the vial was incubated in a controlled-temperature shaker at 45° C. and 300 RPM for 24 hrs. A 200 μl aliquot of the reaction mixture was withdrawn and centrifuged. The supernatant was collected and evaporated under a stream of N2. The residue was reconstituted in 200 μl of acetonitrile and 10 μl of this solution was analyzed by HPLC.

[2] = biological target: T1, alcalase (Bacillus licheniformis, UniProt P00780); experiment: Solvent effect on alcalase catalyzed deacetylation of SOA; type: biochemical; settings: 24 hrs; for SheptaA: total of 1'-OH and 6'-OH heptaacetates; for SOA / ShexaA: solvent as labelled
T1 construct: purchased Novo Nordisk (gift)
T1 sequence (P00780 106-379): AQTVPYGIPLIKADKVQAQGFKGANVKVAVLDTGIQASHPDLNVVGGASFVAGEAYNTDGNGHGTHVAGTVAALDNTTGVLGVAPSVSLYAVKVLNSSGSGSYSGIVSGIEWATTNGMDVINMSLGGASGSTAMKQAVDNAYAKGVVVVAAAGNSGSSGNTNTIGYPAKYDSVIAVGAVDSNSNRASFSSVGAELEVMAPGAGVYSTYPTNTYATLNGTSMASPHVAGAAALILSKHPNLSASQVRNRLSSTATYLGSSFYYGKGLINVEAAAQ
Experimental: as §1
Enzyme Precipitation. Alcalase was prepared by adding 37.5 ml cold acetone (-20° C.) to 25 ml of alcalase solution as supplied by Novo. The aqueous acetone was decanted and the residue dissolved in 25 ml of pH 9.0 glycine--NaOH buffer. The pH of this solution was adjusted to 9.0 with a few drops of dilute NaOH solution. Cold acetone (37.5 ml at -20° C.) was added to the buffered alcalase solution and the precipitate collected by filtration on a medium porosity glass funnel and dried overnight at 2 millitorr. The resulting pellet was ground to a fine powder and stored at 4° C. over saturated aqueous potassium carbonate (RH: 43%) for 24 hrs.
as §2

[3] = tested on: lipase AP 12; experiment: Solvent effect on lipase AP 12 catalyzed deacetylation of SOA; type: biochemical, Aspergillus niger; settings: lipase AP 12, solvent as labelled, 24 hrs
Experimental: as §1
(§3) The pH of commercial powdered enzymes was adjusted in the following way: The enzyme (3 g) was dissolved in 25 ml of an appropriate buffer and the pH adjusted with dilute NaOH or citric/phosphoric acid solution. Cold acetone (37.5 ml at -20° C.) was added and the precipitate collected on a medium porosity glass funnel and dried overnight at 2 millitorr. The protein pellet was ground to a fine powder and equilibrated at 4° C. over saturated aqueous potassium carbonate (RH: 43%) for 24 hrs.
as §2

[4] = tested on: proleather; experiment: Solvent effect on proleather catalyzed deacetylation of SOA; type: biochemical, Bacillus subtilis; settings: 24 hrs; for SheptaA: total of 1'-OH and 6'-OH heptaacetates; for SOA / ShexaA: solvent as labelled
Experimental: as §1, §3, §2

[5] = tested on: alcalase deposited on Hyflo Super Cell; experiment: Solvent effect on alcalase deposited on Hyflo Super Cell catalyzed deacetylation of SOA; type: biochemical, Bacillus licheniformis; settings: immobilized alcalase, 4 hour incubation; for SheptaA: total of 1'-OH and 6'-OH heptaacetates
Experimental: (§4) Alcalase and lipase AY 30 were deposited on Hyflo Super Cell and used as catalysts for SOA deacetylation reactions in several anhydrous solvents.
(§5) Enzyme immobilization. The pH of a solution of 900 mg of buffered alcalase in 18 ml of water was adjusted to 9.0 with dilute NaOH. Hyflo super cell (6 g) was added and the slurry thoroughly mixed. […] Lipase AY 30 was immobilized in the same manner except that the protein solution was adjusted to pH 7.0 with sodium phosphate.
as §2, with “Following a 5 sec sonication, the vial was incubated in a controlled-temperature shaker at 45° C. and 300 RPM for 24 hrs.” left out

[6] = tested on: lipase AY 30 deposited on Hyflo Super Cell; experiment: Solvent effect on lipase AY 30 deposited on Hyflo Super Cell catalyzed deacetylation of SOA; type: biochemical, Candida cylindracea; settings: immobilized lipase AY 30, 24 hrs
Experimental: as §4, §5, §2

[7] = tested on: lipase AY 30; experiment: Effect of the solvent on lipase AY 30 catalyzed deacylation of SOP; type: biochemical, Candida cylindracea; settings: for ShexaP (4.2 min) / SheptaP's (8.9 min) / SheptaP's (9.4 min) / SheptaP's ([…]): lipase AY 30, 24 hrs; for ShexaP (4.2 min): HPLC peak 4.2 min; for SheptaP's (8.9 min): HPLC peak 8.9 min; for SheptaP's (9.4 min): HPLC peak 9.4 min; for SheptaP's ([…]): HPLC peak […]; for SOA: lipase AY 30, solvent as labelled, 200 mM butanol, 24 hrs, peak 21.4 min; as to SheptaP's ([…]): HPLC peak 8.2 min
Experimental: Identical SOP deacylations were performed with lipase AY 30 or protease type XXIII in numerous anhydrous organic solvents, as shown in Tables 12 and 13.
as §2, with “Solvent” for “Enzyme and Solvent”, “screening” for “Screening”, “SOP deacylation.” for “SOA Deacetylation.”, “lipase AY 30” for “powdered enzyme as received”, “protease type XXIII” for “prepared”, “octapropionate (SOP) and 200mM butanol” for “octaacetate (SOA)”

[8] = n-octanol/water, cited from earlier work
[9] = biological target: T1, alcalase; experiment: Nucleophile screening for alcalase catalyzed deacetylation of SOA in diisopropyl ether; type: biochemical; settings: for regiochem: nucleophile 200 mM, peak height ratio 1'-OH / 6'-OH heptaacetate
Experimental: (§6) Nucleophile screening for alcalase, proleather or lipase AP 12 catalyzed deacetylation of SOA. A scintillation vial was charged successively with 100 mg of powdered enzyme prepared as described, 1.0 ml of 20 mM sucrose octaacetate (SOA) and 200 mM of the nucleophile dissolved in diisopropyl ether. Following a 5 sec sonication, the vial was incubated in a controlled-temperature shaker at 45° C. and 300 RPM for 66 hrs. A 200 μl aliquot of the reaction mixture was withdrawn and centrifuged. The supernatant was collected and evaporated under a stream of N2. The residue was reconstituted in 200 μl of acetonitrile and 10 μl of this solution was analyzed by HPLC. For screening concentration effects on enzyme activity, the same protocol was followed except the nucleophile concentration was varied from 0 to 2000 mM.

[10] = tested on: proleather; experiment: Nucleophile screening for proleather catalyzed deacetylation of SOA in diisopropyl ether; type: biochemical, Bacillus subtilis; settings: nucleophile 200 mM; for % conv: 66 hrs; for regiochem: peak height ratio 1'-OH / 6'-OH heptaacetate
Experimental: as §6

[11] = tested on: lipase AP 12; experiment: Nucleophile screening for lipase AP 12 catalyzed deacetylation of SOA in diisopropyl ether; type: biochemical, Aspergillus niger; settings: lipase AP 12, nucleophile 200 mM, 66 hrs
Experimental: as §6

| Structure (SMILES) | SOA [1] [%] | SheptaA [1] [%] | ShexaA [1] [%] | SheptaA [2] [%] | SOA [2] [%] | ShexaA [2] [%] | SOA [3] [%] | SheptaA [3] [%] | ShexaA [3] [%] | SheptaA [4] [%] | SOA [4] [%] | ShexaA [4] [%] | SOA [5] [%] | ShexaA [5] [%] | SheptaA [5] [%] | SOA [6] [%] | regiochem [9] | % conv [10] [%] | regiochem [10] | % conv [11] [%] | also measured |
| --- | --- | --- | --- | --- | --- | --- | --- | --- | --- | --- | --- | --- | --- | --- | --- | --- | --- | --- | --- | --- | --- |
| ClC(Cl)(Cl)Cl [CCl4, carbon tetrachloride] | 86.9 | 10.4 | 2.7 | 5.2 | 94.8 | 0 | 95.1 | 4.3 | 0.6 | 9.6 | 89.1 | 1.3 | 98.6 | 0 | 1.4 | 97.5 | – | – | – | – | SheptaA [6]: 2.5%; ShexaP (4.2 min) [7]: 0%; SheptaP's (8.9 min) [7]: 0%; SheptaP's (9.4 min) [7]: 0.7%; SheptaP's ([…]) [7]: 1.1%; SOA [7]: 98.2%; log P ([8]; from Laane et al.): 3.0 and 3.1 |
| CCCCO [butanol, n-butanol] | – | – | – | – | – | – | – | – | – | – | – | – | – | – | – | – | 7.4 | 44.4 | 4.8 | 25.7 | – |
| OCCC1CCCCN1 (centres unmarked) [2-piperidineethanol] | – | – | – | – | – | – | – | – | – | – | – | – | – | – | – | – | 8.6 | 41.3 | 5.1 | 10.4 | – |
| CCO [ethanol] | – | – | – | – | – | – | – | – | – | – | – | – | – | – | – | – | 7.5 | 47.7 | 5.6 | 26.7 | – |
| OCC1CCCCC1 [cyclohexylmethanol] | – | – | – | – | – | – | – | – | – | – | – | – | – | – | – | – | 8.1 | 42.8 | 4.4 | 24.8 | – |
| OCc1ccccc1 [benzyl alcohol] | – | – | – | – | – | – | – | – | – | – | – | – | – | – | – | – | 8.1 | 46.8 | 6.6 | 22.5 | – |
| CC(C)NC(C)C [diisopropylamine] | – | – | – | – | – | – | – | – | – | – | – | – | – | – | – | – | 9.5 | 37.3 | 4.9 | 3.2 | increase in conversion relative to reaction with no added nucleophile ([9]; 200 mM): at least 25% |

Now from value to compound, other results behind:

| SOA [1] [%] | SheptaA [1] [%] | ShexaA [1] [%] | SheptaA [2] [%] | SOA [2] [%] | ShexaA [2] [%] | SOA [3] [%] | SheptaA [3] [%] | ShexaA [3] [%] | Structure (SMILES) | SheptaA [4] [%] | SOA [4] [%] | ShexaA [4] [%] | SOA [5] [%] | ShexaA [5] [%] | SheptaA [5] [%] | SOA [6] [%] | regiochem [9] | % conv [10] [%] | regiochem [10] | % conv [11] [%] | also measured |
| --- | --- | --- | --- | --- | --- | --- | --- | --- | --- | --- | --- | --- | --- | --- | --- | --- | --- | --- | --- | --- | --- |
| 51.6 | 32.4 | 16.0 | 14.5 | 83.9 | 1.6 | 81.8 | 15.9 | 2.3 | CCCOCCC [dipropyl ether] | 21.5 | 75.2 | 3.3 | 92.9 | 0.6 | 6.5 | 93.4 | – | – | – | – | SheptaA [6]: 6.6%; log P ([8]; from Laane et al.): 1.9 |
| 86.1 | 9.6 | 4.3 | 3.9 | 96.1 | 0 | 96.2 | 3.8 | 0 | COc1ccccc1 [anisole] | 19.4 | 79.2 | 1.4 | 98.0 | 0 | 2.0 | 98.2 | – | – | – | – | SheptaA [6]: 1.2%; log P [8]: 2.1 |
| 29.6 | 39.6 | 30.9 | 22.3 | 75.2 | 2.5 | 82.7 | 15.7 | 1.6 | CC(C)OC(C)C [diisopropyl ether] | 25.9 | 70.6 | 3.5 | 89.3 | 0.8 | 9.9 | 85.7 | – | – | – | – | SheptaA [6]: 14.3%; ShexaP (4.2 min) [7]: 13.0%; SheptaP's (8.9 min) [7]: 1.5%; SheptaP's (9.4 min) [7]: 13.5%; SheptaP's ([…]) [7]: 17.3%; SOA [7]: 54.7%; log P [8]: 1.9 |
